A value given as a limit tells only on which side of the number the result lay.

Some targets named below: STK17B (Homo sapiens, UniProt O94768); ARAF (Homo sapiens, UniProt P10398); PKMYT1 (Homo sapiens, UniProt Q99640); MARK2 (Homo sapiens, UniProt Q7KZI7); PHKG2 (Homo sapiens, UniProt P15735); IRAK1 (Homo sapiens, UniProt P51617); PRKAG1 (Homo sapiens, UniProt P54619); RAF1 (Homo sapiens, UniProt P04049); DSTYK (Homo sapiens, UniProt Q6XUX3); FER (Homo sapiens, UniProt P16591); BRAF (Homo sapiens, UniProt P15056); EPHA3 (Homo sapiens, UniProt P29320); PIP4K2A (Homo sapiens, UniProt P48426); RPS6KA2 (Homo sapiens, UniProt Q15349); PIM3 (Homo sapiens, UniProt Q86V86); MAPKAPK5 (Homo sapiens, UniProt Q8IW41); NRK (Homo sapiens, UniProt Q7Z2Y5); EPHA5 (Homo sapiens, UniProt P54756); YWHAZ (Homo sapiens, UniProt P63104); MAPKAPK3 (Homo sapiens, UniProt Q16644); PRKCA (Homo sapiens, UniProt P17252).

Common to all, as to assay: biochemical
Parameters in all cases: species or system HEK293/K-562/placenta mixed human extract; Kinobeads chemoproteomic competition binding, quantified by TMT LC-MS/MS, dose response up to 20 uM

PHKG2, sequence (P15735 whole entry): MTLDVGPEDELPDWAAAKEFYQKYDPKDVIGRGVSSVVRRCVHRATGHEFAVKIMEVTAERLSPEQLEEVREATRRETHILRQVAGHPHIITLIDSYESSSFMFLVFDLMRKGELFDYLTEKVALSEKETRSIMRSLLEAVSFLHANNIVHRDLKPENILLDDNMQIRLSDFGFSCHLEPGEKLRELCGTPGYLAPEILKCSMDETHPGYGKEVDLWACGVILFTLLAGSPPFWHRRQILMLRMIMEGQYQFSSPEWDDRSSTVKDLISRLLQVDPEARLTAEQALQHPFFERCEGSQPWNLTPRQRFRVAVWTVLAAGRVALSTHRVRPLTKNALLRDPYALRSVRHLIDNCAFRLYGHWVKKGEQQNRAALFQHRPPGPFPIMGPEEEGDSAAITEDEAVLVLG
EPHA5, sequence (P54756 whole entry): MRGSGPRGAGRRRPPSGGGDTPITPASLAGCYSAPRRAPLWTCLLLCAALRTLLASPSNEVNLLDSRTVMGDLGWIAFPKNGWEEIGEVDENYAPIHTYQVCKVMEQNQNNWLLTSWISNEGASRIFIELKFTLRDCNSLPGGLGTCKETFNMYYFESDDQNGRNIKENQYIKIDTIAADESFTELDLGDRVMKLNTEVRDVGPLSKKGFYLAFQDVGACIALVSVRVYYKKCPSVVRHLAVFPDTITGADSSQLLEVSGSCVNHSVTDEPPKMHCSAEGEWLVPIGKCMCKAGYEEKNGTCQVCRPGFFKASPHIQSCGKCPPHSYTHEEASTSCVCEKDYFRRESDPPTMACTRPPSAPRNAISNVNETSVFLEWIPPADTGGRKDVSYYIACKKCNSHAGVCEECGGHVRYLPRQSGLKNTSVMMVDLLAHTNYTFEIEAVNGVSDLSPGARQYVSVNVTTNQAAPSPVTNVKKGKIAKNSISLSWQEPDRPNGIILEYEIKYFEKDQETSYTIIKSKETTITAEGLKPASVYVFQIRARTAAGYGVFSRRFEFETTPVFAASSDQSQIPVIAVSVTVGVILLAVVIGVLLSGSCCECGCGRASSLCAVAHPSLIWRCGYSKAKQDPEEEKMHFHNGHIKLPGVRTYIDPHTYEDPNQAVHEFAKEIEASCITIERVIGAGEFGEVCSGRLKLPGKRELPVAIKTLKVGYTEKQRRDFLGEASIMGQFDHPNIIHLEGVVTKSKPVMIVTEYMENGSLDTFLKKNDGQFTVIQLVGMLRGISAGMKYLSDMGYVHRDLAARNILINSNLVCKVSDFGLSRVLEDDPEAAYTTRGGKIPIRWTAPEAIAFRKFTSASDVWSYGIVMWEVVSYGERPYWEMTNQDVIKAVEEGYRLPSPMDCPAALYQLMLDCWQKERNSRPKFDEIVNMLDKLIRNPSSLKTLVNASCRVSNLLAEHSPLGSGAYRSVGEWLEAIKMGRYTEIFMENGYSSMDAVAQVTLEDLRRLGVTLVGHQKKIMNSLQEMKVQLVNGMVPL
PIP4K2A, sequence (P48426 whole entry): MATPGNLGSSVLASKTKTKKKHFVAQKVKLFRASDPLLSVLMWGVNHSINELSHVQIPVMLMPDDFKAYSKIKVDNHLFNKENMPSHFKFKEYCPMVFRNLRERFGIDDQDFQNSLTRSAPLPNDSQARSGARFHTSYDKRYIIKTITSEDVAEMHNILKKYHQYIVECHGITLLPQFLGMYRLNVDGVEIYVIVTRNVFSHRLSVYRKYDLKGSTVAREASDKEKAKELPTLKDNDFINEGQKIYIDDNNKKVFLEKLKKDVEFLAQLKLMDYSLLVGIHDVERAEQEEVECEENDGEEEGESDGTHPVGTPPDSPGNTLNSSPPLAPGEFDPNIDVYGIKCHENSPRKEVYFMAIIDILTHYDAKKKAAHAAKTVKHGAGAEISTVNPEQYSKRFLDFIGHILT
RPS6KA2, sequence (Q15349 whole entry): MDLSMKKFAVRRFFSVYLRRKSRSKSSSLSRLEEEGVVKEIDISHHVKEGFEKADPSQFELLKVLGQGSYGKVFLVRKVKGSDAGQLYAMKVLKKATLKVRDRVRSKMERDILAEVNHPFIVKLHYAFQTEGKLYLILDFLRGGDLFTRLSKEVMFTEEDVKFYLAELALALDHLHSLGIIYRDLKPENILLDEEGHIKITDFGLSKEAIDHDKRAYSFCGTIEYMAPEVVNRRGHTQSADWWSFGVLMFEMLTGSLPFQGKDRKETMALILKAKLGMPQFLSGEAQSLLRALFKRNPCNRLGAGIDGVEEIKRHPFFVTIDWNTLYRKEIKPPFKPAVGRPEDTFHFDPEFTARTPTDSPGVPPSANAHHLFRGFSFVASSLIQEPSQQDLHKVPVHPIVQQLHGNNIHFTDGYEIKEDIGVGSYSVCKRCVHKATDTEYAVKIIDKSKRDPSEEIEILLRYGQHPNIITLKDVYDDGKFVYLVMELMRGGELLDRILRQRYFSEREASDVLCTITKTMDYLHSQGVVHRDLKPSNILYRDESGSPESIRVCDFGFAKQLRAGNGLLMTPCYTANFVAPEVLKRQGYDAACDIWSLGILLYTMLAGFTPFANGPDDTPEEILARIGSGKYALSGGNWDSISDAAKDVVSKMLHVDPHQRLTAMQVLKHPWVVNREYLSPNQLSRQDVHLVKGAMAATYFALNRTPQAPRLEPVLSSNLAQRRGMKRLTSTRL
STK17B, sequence (O94768 whole entry): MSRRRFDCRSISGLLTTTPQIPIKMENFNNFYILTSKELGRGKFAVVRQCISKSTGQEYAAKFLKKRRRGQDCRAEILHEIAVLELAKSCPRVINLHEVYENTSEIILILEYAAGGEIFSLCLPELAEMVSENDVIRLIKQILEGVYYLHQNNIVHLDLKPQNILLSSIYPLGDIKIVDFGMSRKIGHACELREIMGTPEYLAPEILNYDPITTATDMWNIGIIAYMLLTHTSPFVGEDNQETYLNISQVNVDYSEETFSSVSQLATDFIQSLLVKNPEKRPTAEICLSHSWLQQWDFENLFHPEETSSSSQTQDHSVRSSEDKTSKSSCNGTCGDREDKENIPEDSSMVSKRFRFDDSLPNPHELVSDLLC
IRAK1, sequence (P51617 whole entry): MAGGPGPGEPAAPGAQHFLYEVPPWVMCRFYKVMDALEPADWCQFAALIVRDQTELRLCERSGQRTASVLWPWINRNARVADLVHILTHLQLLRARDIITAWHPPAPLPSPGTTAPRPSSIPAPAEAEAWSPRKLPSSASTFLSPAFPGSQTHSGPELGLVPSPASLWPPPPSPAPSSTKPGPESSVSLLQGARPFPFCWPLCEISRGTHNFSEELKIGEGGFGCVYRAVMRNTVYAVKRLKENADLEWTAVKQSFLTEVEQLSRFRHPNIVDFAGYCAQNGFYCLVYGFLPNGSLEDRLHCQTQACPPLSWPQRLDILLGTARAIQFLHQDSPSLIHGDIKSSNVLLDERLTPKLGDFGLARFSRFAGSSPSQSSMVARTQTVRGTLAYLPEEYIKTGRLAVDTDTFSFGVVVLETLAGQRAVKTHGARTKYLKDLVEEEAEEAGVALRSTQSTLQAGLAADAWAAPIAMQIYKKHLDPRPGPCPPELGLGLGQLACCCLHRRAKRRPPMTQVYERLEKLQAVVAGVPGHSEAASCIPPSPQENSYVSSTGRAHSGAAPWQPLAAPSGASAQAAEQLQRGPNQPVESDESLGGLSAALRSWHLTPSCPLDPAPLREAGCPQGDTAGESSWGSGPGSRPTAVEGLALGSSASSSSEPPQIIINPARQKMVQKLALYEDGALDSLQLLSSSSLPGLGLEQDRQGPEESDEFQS
FER, sequence (P16591 whole entry): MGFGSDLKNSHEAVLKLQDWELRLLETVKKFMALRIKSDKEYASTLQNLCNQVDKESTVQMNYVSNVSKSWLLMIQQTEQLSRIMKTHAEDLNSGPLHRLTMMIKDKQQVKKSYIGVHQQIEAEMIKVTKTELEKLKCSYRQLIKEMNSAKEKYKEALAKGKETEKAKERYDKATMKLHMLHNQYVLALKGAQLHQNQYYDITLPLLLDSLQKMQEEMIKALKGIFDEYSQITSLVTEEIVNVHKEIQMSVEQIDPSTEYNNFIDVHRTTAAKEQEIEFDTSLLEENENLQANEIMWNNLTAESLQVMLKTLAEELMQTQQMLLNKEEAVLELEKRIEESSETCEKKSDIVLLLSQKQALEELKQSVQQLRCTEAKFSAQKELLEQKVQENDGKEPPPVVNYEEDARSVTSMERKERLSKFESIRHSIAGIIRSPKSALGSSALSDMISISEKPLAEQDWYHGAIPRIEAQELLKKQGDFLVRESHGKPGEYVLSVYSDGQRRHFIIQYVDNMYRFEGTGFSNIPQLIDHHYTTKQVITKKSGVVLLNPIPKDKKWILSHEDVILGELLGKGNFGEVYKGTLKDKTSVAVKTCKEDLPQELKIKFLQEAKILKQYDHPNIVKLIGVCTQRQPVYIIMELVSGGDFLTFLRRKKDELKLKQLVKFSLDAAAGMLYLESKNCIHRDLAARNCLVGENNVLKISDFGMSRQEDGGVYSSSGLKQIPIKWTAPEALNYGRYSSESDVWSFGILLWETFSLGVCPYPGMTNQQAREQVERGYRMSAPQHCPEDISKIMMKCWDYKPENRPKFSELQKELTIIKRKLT

What is called IC50 is the concentration that gives 50% inhibition. Higher therefore signals a need for much substance. On to `COc1nc(N[C@H]2CC[C@H](NS(=O)(=O)CC(C)C)CC2)nc2[nH]nc(N3CCOC[C@H]3C)c12` [compound 39, N-(trans-4-((4-Methoxy-3-((R)-3-methylmorpholino)-1H-pyrazolo[3,4-d]pyrimidin-6-yl)amino)cyclohexyl)-2-methylpropane-1-sulfonamide], for which the IC50 on STK17B, on ARAF, at PKMYT1, at MARK2, at PHKG2 and on IRAK1 was no less than 20 µM in each case. For the same compound, the IC50 at PRKAG1, on RAF1, at DSTYK, on FER, on BRAF and at EPHA3 was no less than 20 µM in each case. The IC50 at PIP4K2A was no less than 20 µM; at RPS6KA2, no less than 20 µM; at PIM3, no less than 20 µM; on MAPKAPK5, 6.2 µM; at NRK, no less than 20 µM; on EPHA5, no less than 20 µM. Besides, the IC50 at YWHAZ, at MAPKAPK3 and at PRKCA was no less than 20 µM throughout.

The values are drawn from publication PMC6407917, “Identification of GSK3186899/DDD853651 as a Preclinical Development Candidate for the Treatment of Visceral Leishmaniasis” (Journal of Medicinal Chemistry, 2018).
